Values quoted from earlier work, collected in patent publication US20140348954A1, “PRODUCT COMPRISING GLUCOMANNAN AND CHITOSAN FOR THE TREATMENT OF GASTROESOPHAGEAL REFLUX DISEASE” (DICOFARM S.P.A., priority 2012, published 2014).

Biological target: transient receptor potential cation channel subfamily V member 1 (TrpV1) (Homo sapiens, UniProt Q8NER1)
Settings: inflamed human esophagus due to GERD

Sequence of transient receptor potential cation channel subfamily V member 1 (TrpV1) (Q8NER1 whole entry): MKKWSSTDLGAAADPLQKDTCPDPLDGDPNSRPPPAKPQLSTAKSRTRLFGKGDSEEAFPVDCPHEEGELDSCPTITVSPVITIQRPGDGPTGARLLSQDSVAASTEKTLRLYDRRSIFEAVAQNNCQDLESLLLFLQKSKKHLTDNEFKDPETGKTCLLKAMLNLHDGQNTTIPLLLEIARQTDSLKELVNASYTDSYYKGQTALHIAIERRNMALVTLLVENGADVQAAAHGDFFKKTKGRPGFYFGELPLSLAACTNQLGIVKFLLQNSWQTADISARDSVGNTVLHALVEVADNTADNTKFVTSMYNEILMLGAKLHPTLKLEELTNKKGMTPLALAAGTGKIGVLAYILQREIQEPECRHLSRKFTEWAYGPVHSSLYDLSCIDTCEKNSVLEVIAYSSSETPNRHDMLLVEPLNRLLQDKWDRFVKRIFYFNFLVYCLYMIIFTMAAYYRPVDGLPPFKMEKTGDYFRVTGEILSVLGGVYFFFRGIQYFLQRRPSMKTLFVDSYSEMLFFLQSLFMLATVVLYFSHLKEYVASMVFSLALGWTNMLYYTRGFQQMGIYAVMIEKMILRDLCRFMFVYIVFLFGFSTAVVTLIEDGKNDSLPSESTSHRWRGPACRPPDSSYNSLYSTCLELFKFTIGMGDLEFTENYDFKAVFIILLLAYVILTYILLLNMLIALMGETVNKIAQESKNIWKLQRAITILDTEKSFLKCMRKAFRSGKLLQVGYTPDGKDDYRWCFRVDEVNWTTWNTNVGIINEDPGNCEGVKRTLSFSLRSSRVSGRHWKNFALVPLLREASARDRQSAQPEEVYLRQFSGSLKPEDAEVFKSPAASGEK

action on TrpV1: typical activator
SMILES: COc1cc(/C=C/C(=O)CC(=O)/C=C/c2ccc(O)c(OC)c2)ccc1O [curcumin]
